“Also recorded” adds a separate entry of the source.
Legend:
human tau = assay: Fluorescence polarization competing assay, tau; assay type: binding; conditions: 2.5 μM tau, 0.1 μM FITC-labeled DEPTAC; 37 °C, 30 min
Procedure: (§1) Purified human tau and PP2A-Bα (PPP2R1A) were obtained from AtaGenix (Wuhan, China), and concentrated using ultrafiltration tubes (Beyotime). In basic binding assays, tau or PP2A-Bα was aliquoted into serial dilutions with a buffer containing 20 mM Tris-HCl, 150 mM NaCl, and 0.5 mM 1,4-Dithiothreitol (pH 7.4), and incubated with 0.1 μM FITC-labeled DEPTAC, FITC-labeled control peptide and FITC (9:1 vol/vol), respectively, in a black 384-well plates (Corning) under 37 °C for 30 min. In competition binding assays, a mixture of 2.5 μM tau or PP2A-Bα and 0.1 μM FITC-labeled DEPTAC were incubated with increasing amounts of unlabeled-DEPTAC under 37 °C for 30 min. Fluorescence intensity was measured by a Biotek Synergy 2 microplate reader with the wavelengths of 480 nm (60) (Ex)/560 nm (40) (Em). The polarization measurements were corrected for background contributions to the measured intensity by subtracting the parallel and perpendicular intensity readings by the vehicle-only wells from the intensity readings for each data point. Fluorescence polarization (P) was calculated by the formula P = (I║ − I┴) / (I║ + I┴), where I║ was the intensity of emitted light polarized parallel to the excitation light, and I┴ was the intensity of emitted light polarized perpendicular to the excitation light.

PP2A-Bα (PPP2R1A) = assay: Fluorescence polarization competing assay, PP2A-Bα; assay type: binding, human; conditions: 2.5 μM PP2A-Bα, 0.1 μM FITC-labeled DEPTAC; 37 °C, 30 min
Procedure: as §1

[1] = test system: dentate granular cells of Tau368 mice; assay: Sparse labeling: dendritic spine density and mossy fiber puncta area; assay type: in vivo, mouse
Procedure: For 2-month male C57BL/6 mice, 10 mM FITC-labeled or unlabeled-DEPTAC were directly injected through the tail vein or lateral ventricle for the evaluation of BBB-penetrability. For 9-month 3×Tg AD mice or Tau368 (20–30 g body weight), unlabeled-DEPTAC (5 mM, 1 μL for each time) was delivered for once into the lateral ventricle through direct stereotaxic injection, or repeatedly administrated through guiding cannulas (RWD, Shenzhen, China) implanted into the lateral ventricle once every 3 days for a consecutive month to test its dephosphorylation efficiency. Mice were restricted in a custom designed device and stayed awake during drug administration, and sacrificed at 24 h post the single or last DEPTAC administration.
A total volume of 0.3 μL mixture of AAV-CaMKIIα-Cre (5.21E+07) and AAV-EF1α-DIO-mCherry (3.24E+12) (1:1 vol/vol) was stereotaxically injected into the dDG of Tau368 mice 1 month following the beginning of dox or normal drinking water administration. Dox was stopped 1-month post AAVs injection, and DEPTAC were delivered through lateral ventricle for a consecutive month. Behavioral tests were performed after the DEPTAC administration, and mice were killed after behavioral tests. Hippocampal sections of 60 μm were obtained, and fluorescent images were taken by a two-photon laser-scanning confocal microscope (LSM710, Zeiss). The dendrite complexity of granular cells in the dorsal dentate gyrus was evaluated by Sholl analysis using Simple Neurite Tracer plugin and ImageJ (Fiji) software. Dendrite spine density and the averaged area of mossy fiber punctas were evaluated using ImageJ by an experimenter blinded from mice groupings. It should be noted that the fluorescence-labeled mossy fibers assembled densely in the CA3 subset, the main target area of mossy fiber axon terminals, making it difficult to accurately measure the puncta areas (data not shown). Therefore, we chose the hilus of DG subset for the measurement, which we believe should be also valid to indicate the axon plasticity of DG granular cells.

[2] = Tau368 mice without dox, n = 3 mice
[3] = dox-treated Tau368 mice, DEPTAC 1 month after stopping dox, *p < 0.05, n = 5 mice

Substance: (1) YQQYQDATADEQG, originates from the porcine β-tubulin 422–434 for recognizing and binding tau proteins.[5],[6] (2) GSGS, a linker for increasing the flexibility of the peptide.[15] (3) KKVAVVRTPPKSP, for recruiting PP2A-Bα,[16] and (4) RRRRRRRR [DEPTAC, DEPhosphorylation TArgeting Chimera; 38 amino acid residues, C185H314N72O56]
- reversal of FITC-DEPTAC/tau polarization by increased amount of unlabeled-DEPTAC (human tau): both were reversed
- reversal of FITC-DEPTAC/PP2A-Bα polarization by increased amount of unlabeled-DEPTAC (PP2A-Bα (PPP2R1A)): both were reversed
- averaged mossy fiber puncta area, without dox [1, 2]: only limited effects
- dendritic spine density, without dox [1, 2]: only limited effects
- averaged area of mossy fiber puncta [1, 3]: increased; also recorded: enlarged
- mushroom-like dendritic spine density [1, 3]: significantly increased
- total dendritic spine density [1, 3]: significantly increased

Reference: paper PMC8280143, “A novel dephosphorylation targeting chimera selectively promoting tau removal in tauopathies” (Signal Transduction and Targeted Therapy, 2021)
